The structures appear in SMILES notation.

This note sets out measurements from EP4793267A1, “CARBONATE CONTAINING LIPID COMPOUNDS AND COMPOSITIONS FOR INTRACELLULAR DELIVERY OF THERAPEUTIC AGENTS” (ModernaTX, Inc., priority 2019, dated 2021).

Data set [1] can be described thus: Residual parent lipid levels in the liver after LNP administration to mice. Format: in vivo. Conditions: 24 h after intravenous LNP administration, CD-1 mice. How it is done:
(§1) To assess potency of expression and metabolic stability of lipids of the disclosure the hepatocyte protein expression (hEPO) following administration of a nanoparticle of the disclosure (e.g., a loaded LNP) to mice was measured.
(§2) Lipid nanoparticles (LNPs) including DSPC as a phospholipid, cholesterol as a structural lipid, PEG-1 as a PEG lipid, a compound according to Formula (A), (A1), (A2), (A3), (B), (1), (I'), (I-X), (I-Y), (I-Ya) (IA), (Ia), (Ib), (Ic), (Id), (Ie), (If), (Ig), (II), (IIa), or (IIb), and an mRNA encoding hEPO were intravenously administered to CD-1 mice. The concentration of hEPO in serum was tested at 6 h after injection. […] Table 2. Expression of hEPO induced by administration of LNPs comprising lipids of the disclosure in mice and residual lipid levels in the liver.

For data set [2], the system named is hepatocyte protein expression (hEPO). Put plainly: Expression of hEPO induced by LNPs comprising the lipid and hEPO mRNA in mice. Conditions: LNP with DSPC, cholesterol, PEG-1, mRNA encoding hEPO, CD-1 mice; for hEPO AUC: intravenous; for Mean 6 hr hEPO Concentration (mIU/mL): serum, 6 h after intravenous injection. Format: in vivo. How it is done: as §1, §2

For the compound `CCCCCCCCCOC(=O)OCCCCCCN(CCO)CCCCCCCC(=O)OC(CCCCCCCC)CCCCCCCC` [Compound 6, Heptadecan-9-yl 8-((2-hydroxyethyl)(6-(((nonyloxy)carbonyl)oxy)hexyl)amino)octanoate], in data set [1], the “Parent Lipid Remaining (nmol/g liver tissue) at 24 h” value (“Parent Lipid Remaining” below) is reported as 3 ± 1 nmol/g liver tissue. Besides, in data set [2], the “hEPO AUC” value came out at 8.19E+06 and the “Mean 6 hr hEPO Concentration (mIU/mL)” value is recorded as 509181.4 mIU/mL.

Consider `CCCCCCCCC(CCCCCCCC)OC(=O)CCCCCCCN(CCO)CCCCCCOC(=O)OCCC(CCCCC)CCCCC` [Compound 64, Heptadecan-9-yl 8-((2-hydroxyethyl)(6-((((3-pentyloctyl)oxy)carbonyl)oxy)hexyl)amino)octanoate], for which, in data set [1], the “Parent Lipid Remaining” value is recorded as 72 ± 17 nmol/g liver tissue. Also, in data set [2], the “hEPO AUC” value worked out at 1.11E+07 and the “Mean 6 hr hEPO Concentration (mIU/mL)” value was 735556.2 mIU/mL.

For the compound `CCCCCCCCC(CCCCCCCC)OC(=O)CCCCCCCN(CCCCCCOC(=O)OCCC(CCCCCC)CCCCCC)CCCNc1c(NC)c(=O)c1=O` [Compound 65, Heptadecan-9-yl 8-((6-((((3-hexylnonyl)oxy)carbonyl)oxy)hexyl)(3-((2-(methylamino)-3,4-dioxocyclobut-1-en-1-yl)amino)propyl)amino)octanoate], the “Parent Lipid Remaining” value in data set [1] amounted to 364 ± 58 nmol/g liver tissue. Also, in data set [2], the “hEPO AUC” value is reported as 7.76E+06 and the “Mean 6 hr hEPO Concentration (mIU/mL)” value came to 521341.6 mIU/mL.

`CCCCCCCCC(CCCCCCCC)OC(=O)CCCCCCCN(CCO)CCCCCCOC(=O)OCCC(CCCCCC)CCCCCC` [Compound 66, Heptadecan-9-yl 8-((6-((((3-hexylnonyl)oxy)carbonyl)oxy)hexyl)(2-hydroxyethyl)amino)octanoate]: the “Parent Lipid Remaining” value in data set [1] is 67 ± 8 nmol/g liver tissue. For the same compound, in data set [2], the “hEPO AUC” value is 9.77E+06 and the “Mean 6 hr hEPO Concentration (mIU/mL)” value was determined as 641899.1 mIU/mL.

With `CCCCCCCCC(CCCCCCCC)OC(=O)CCCCCCCN(CCCCCCOC(=O)OCCC(CCCCC)CCCCC)CCCNc1c(NC)c(=O)c1=O` [Compound 67, Heptadecan-9-yl 8-((3-((2-(methylamino)-3,4-dioxocyclobut-1-en-1-yl)amino)propyl)(6-((((3-pentyloctyl)oxy)carbonyl)oxy)hexyl)amino)octanoate], the “Parent Lipid Remaining” value in data set [1] is 94 ± 15 nmol/g liver tissue. In addition, in data set [2], the “hEPO AUC” value is recorded as 1.31E+07 and the “Mean 6 hr hEPO Concentration (mIU/mL)” value is recorded as 891982.2 mIU/mL.
